Data taken from ChEMBL document CHEMBL1201862, “PubChem BioAssay data set” (2004).
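48-hour exposure; five concentrations; linearly interpolated endpoints. GI50 = concentration required for 50% inhibition of growth.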 Calls of active or inactive are those of the source. No stated cut-off is given here; in the data, active = GI50 up to about 1.1 µM and inactive = higher.

Assays:
Assay in all cases: growth of human tumour cells (NCI), 48 h
A549 = tested on: A549
ACHN = tested on: ACHN
CCRF-CEM = tested on: CCRF-CEM
EKVX = tested on: EKVX
HCC 2998 = tested on: HCC 2998
HOP-62 = tested on: HOP-62
OVCAR-3 = tested on: OVCAR-3
OVCAR-4 = tested on: OVCAR-4
RPMI-8226 = tested on: RPMI-8226
SK-MEL-28 = tested on: SK-MEL-28
SNB-19 = tested on: SNB-19
U-251 = tested on: U-251
UACC-62 = tested on: UACC-62
DMS-114 = tested on: DMS-114
IGROV-1 = tested on: IGROV-1
KM-20L2 = tested on: KM-20L2
SF-268 = tested on: SF-268
DLD-1 = tested on: DLD-1
DMS-273 = tested on: DMS-273
NCI-H522 = tested on: NCI-H522

SMILES | GI50 (A549) | GI50 (ACHN) | GI50 (CCRF-CEM) | GI50 (EKVX) | GI50 (HCC 2998) | GI50 (HOP-62) | GI50 (OVCAR-3) | GI50 (OVCAR-4) | GI50 (RPMI-8226) | GI50 (SK-MEL-28) | GI50 (SNB-19) | GI50 (U-251) | GI50 (UACC-62) | GI50 (DMS-114) | GI50 (IGROV-1) | GI50 (KM-20L2) | GI50 (SF-268) | GI50 (DLD-1) | GI50 (DMS-273) | GI50 (NCI-H522)
COC(=O)C#Cc1cccc(OC)c1OC | 37.5 µM (inactive) | 60 µM (inactive) | 26.6 µM (inactive) | 19.5 µM (inactive) | 24.4 µM (inactive) | 98.2 µM (inactive) | 41.1 µM (inactive) | 20.4 µM (inactive) | 30.1 µM (inactive) | 38.9 µM (inactive) | 60.3 µM (inactive) | 31.8 µM (inactive) | 48.3 µM (inactive) | – | – | – | – | – | – | –
C/N=c1/ssc(=S)n1C(C)C | 25.6 µM (inactive) | 20.8 µM (inactive) | 0.673 µM (active) | 57.8 µM (inactive) | 13.9 µM (inactive) | 18.9 µM (inactive) | 12.4 µM (inactive) | – | 11.6 µM (inactive) | 1.4 µM (inactive) | > 100 µM (inactive) | – | 12 µM (inactive) | 3.13 µM (inactive) | 17.5 µM (inactive) | 16.7 µM (inactive) | 33.8 µM (inactive) | – | – | –
CCOC(=O)c1csc(NC(=O)CCN(CC)CC)n1 | 55 µM (inactive) | 42.9 µM (inactive) | 27.5 µM (inactive) | 63.2 µM (inactive) | 49.8 µM (inactive) | > 100 µM (inactive) | 26.8 µM (inactive) | 57.4 µM (inactive) | 0.0817 µM (active) | 27.5 µM (inactive) | > 100 µM (inactive) | 81.3 µM (inactive) | 45 µM (inactive) | – | 39.7 µM (inactive) | – | – | – | – | –
OCCNCN(CNCCO)c1nc(N(CNCCO)CNCCO)nc(N(CNCCO)CNCCO)n1 | 0.0711 µM (active) | 0.04 µM (active) | 0.04 µM (active) | 0.0679 µM (active) | – | 0.0687 µM (active) | 0.0908 µM (active) | 0.0715 µM (active) | – | 0.04 µM (active) | 0.0708 µM (active) | 0.0745 µM (active) | – | – | 0.0757 µM (active) | 0.103 µM (active) | 0.0578 µM (active) | 0.04 µM (active) | > 0.4 µM (active) | 0.0653 µM (active)
N/C(=C\c1ccc(/C=C(\NC(=O)c2ccccc2)c2nc3c([nH]2)C(=O)c2ccccc2C3=O)cc1)c1nc2c([nH]1)C(=O)c1ccccc1C2=O | 14.2 µM (inactive) | 15.6 µM (inactive) | 12.3 µM (inactive) | 23.3 µM (inactive) | – | – | 13.6 µM (inactive) | 11.2 µM (inactive) | 4.33 µM (inactive) | 16.8 µM (inactive) | 12.6 µM (inactive) | 14.3 µM (inactive) | 11.5 µM (inactive) | 7.55 µM (inactive) | 14.8 µM (inactive) | 16.5 µM (inactive) | 8.47 µM (inactive) | 12.7 µM (inactive) | 18.5 µM (inactive) | 11.9 µM (inactive)
CCOC(=O)/C=C(\C)c1ccc(OC)cc1 | > 100 µM (inactive) | 74.1 µM (inactive) | – | > 100 µM (inactive) | > 100 µM (inactive) | – | – | > 100 µM (inactive) | > 100 µM (inactive) | > 100 µM (inactive) | > 100 µM (inactive) | > 100 µM (inactive) | – | > 100 µM (inactive) | > 100 µM (inactive) | > 100 µM (inactive) | > 100 µM (inactive) | > 100 µM (inactive) | > 100 µM (inactive) | –
COc1nc(Cl)c(Cl)c(Cl)n1.COc1nc(Cl)nc(Cl)c1Cl | 18.1 µM (inactive) | 7.59 µM (inactive) | 2.7 µM (inactive) | 0.381 µM (active) | 0.252 µM (active) | 2.92 µM (inactive) | 3.95 µM (inactive) | 6.07 µM (inactive) | 0.938 µM (active) | 14 µM (inactive) | 4.97 µM (inactive) | 3.78 µM (inactive) | 8.93 µM (inactive) | – | 4.53 µM (inactive) | – | 6.18 µM (inactive) | – | – | 0.675 µM (active)
CCOC(=O)C(NC(=O)CC)(Nc1ccccc1OC)C(F)(F)F (configuration not stated) | > 100 µM (inactive) | > 100 µM (inactive) | > 100 µM (inactive) | > 100 µM (inactive) | > 100 µM (inactive) | – | > 100 µM (inactive) | > 100 µM (inactive) | > 100 µM (inactive) | > 100 µM (inactive) | > 100 µM (inactive) | > 100 µM (inactive) | > 100 µM (inactive) | – | > 100 µM (inactive) | – | > 100 µM (inactive) | – | – | > 100 µM (inactive)
CCOC(=O)/C(C#N)=C1/SC(C(=O)N/N=C/c2ccc(OC)cc2)=C(N)N1c1ccccc1 | > 100 µM (inactive) | 28.9 µM (inactive) | > 100 µM (inactive) | – | > 100 µM (inactive) | 71 µM (inactive) | > 100 µM (inactive) | – | 1.71 µM (inactive) | 35.6 µM (inactive) | > 100 µM (inactive) | > 100 µM (inactive) | > 100 µM (inactive) | – | 3.1 µM (inactive) | – | 97.5 µM (inactive) | > 100 µM (inactive) | – | > 100 µM (inactive)
O=C(O[C@@H](/C=C/c1ccccc1)P1(=O)N(Cc2ccccc2)[C@H]2CCCC[C@@H]2N1Cc1ccccc1)c1ccccc1 | 3.61 µM (inactive) | 2.32 µM (inactive) | 3.03 µM (inactive) | 4.12 µM (inactive) | 2.58 µM (inactive) | 2.82 µM (inactive) | 3.48 µM (inactive) | 3.59 µM (inactive) | 2.29 µM (inactive) | 7.78 µM (inactive) | 5.81 µM (inactive) | 2.45 µM (inactive) | 2.12 µM (inactive) | – | 4.79 µM (inactive) | – | 5.5 µM (inactive) | – | – | 3.55 µM (inactive)
Nc1[nH]cnc2ncnc1-2 [ADENINE] | – | – | – | – | > 125 µM (inactive) | 58.9 µM (inactive) | – | > 126 µM (inactive) | 168 µM (inactive) | > 243 µM (inactive) | – | 108 µM (inactive) | 48.1 µM (inactive) | 84.1 µM (inactive) | > 250 µM (inactive) | > 250 µM (inactive) | – | 135 µM (inactive) | 81.1 µM (inactive) | 50.7 µM (inactive)
COc1ccc(/C=N/N=C(N)N)c(C(=O)O)c1OC | > 100 µM (inactive) | > 100 µM (inactive) | > 100 µM (inactive) | > 100 µM (inactive) | – | – | > 100 µM (inactive) | > 100 µM (inactive) | > 100 µM (inactive) | > 100 µM (inactive) | > 100 µM (inactive) | > 100 µM (inactive) | > 100 µM (inactive) | > 100 µM (inactive) | > 10 µM (inactive) | > 100 µM (inactive) | > 100 µM (inactive) | – | > 100 µM (inactive) | > 100 µM (inactive)
Nc1nc(SCCNC(=O)CCc2ccc(O)c(I)c2)nc2c1ncn2C1OC(CO)C(O)C1O (configuration not stated) | > 100 µM (inactive) | > 100 µM (inactive) | > 100 µM (inactive) | > 100 µM (inactive) | > 100 µM (inactive) | > 100 µM (inactive) | > 100 µM (inactive) | > 100 µM (inactive) | – | > 100 µM (inactive) | > 100 µM (inactive) | > 100 µM (inactive) | > 100 µM (inactive) | > 100 µM (inactive) | > 100 µM (inactive) | > 100 µM (inactive) | > 100 µM (inactive) | > 100 µM (inactive) | > 100 µM (inactive) | > 100 µM (inactive)
